# What was measured:
# Experiment in all cases: relative viability (nuclei count vs DMSO), 5 days (fraction); higher = more cells survive
# [1] = compound: COc1cc2c(Oc3ccc4[nH]c(C)cc4c3F)ncnc2cc1OCCCN1CCCC1 [Cediranib] + CS(=O)(=O)CCNCc1ccc(-c2ccc3ncnc(Nc4ccc(OCc5cccc(F)c5)c(Cl)c4)c3c2)o1 [Lapatinib] (partner 2 µM)
# Outline: (§1)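 Lung cancer cell lines were seeded in 1536-well plates and dosed by pin tool the next day, with either a single drug or a fixed anchor-drug dose combined with five library-drug doses (not always all listed) spaced in √10 steps. Five days later, one step fixed the cells and stained their nuclei (final 0.05% Triton X-100, 1% formaldehyde, 1 ug/ml Hoechst), and nuclei were counted on 4× images. Relative viability is the nuclei count in treated wells divided by the count in vehicle wells, and each value is the median of duplicate plates.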
# [2] = compound: COc1cc2c(Oc3ccc4[nH]c(C)cc4c3F)ncnc2cc1OCCCN1CCCC1 [Cediranib] + C[C@]1(O)C[C@@H](c2nc(-c3ccc4ccc(-c5ccccc5)nc4c3)c3c(N)nccn32)C1 [Linsitinib] (partner 1 µM)
# Outline: as §1
# [3] = compound: COc1cc2c(Oc3ccc4[nH]c(C)cc4c3F)ncnc2cc1OCCCN1CCCC1 [Cediranib] + Nc1ncn([C@H]2C[C@H](O)[C@@H](CO)O2)c(=O)n1 [Decitabine] (partner 2 µM)
# Outline: as §1
# [4] = compound: COc1cc2c(Oc3ccc4[nH]c(C)cc4c3F)ncnc2cc1OCCCN1CCCC1 [Cediranib] + O=C(c1cc(Cc2n[nH]c(=O)c3ccccc23)ccc1F)N1CCN(C(=O)C2CC2)CC1 [Olaparib] (partner 8 µM)
# Outline: as §1
Cell Line,relative viability ([1]; first compound 0.04 µM),relative viability ([1]; first compound 0.1265 µM),relative viability ([1]; first compound 0.4 µM),relative viability ([1]; first compound 1.265 µM),relative viability ([1]; first compound 4 µM),relative viability ([2]; first compound 0.04 µM),relative viability ([2]; first compound 0.1265 µM),relative viability ([2]; first compound 0.4 µM),relative viability ([2]; first compound 1.265 µM),relative viability ([2]; first compound 4 µM),relative viability ([3]; first compound 0.04 µM),relative viability ([3]; first compound 0.1265 µM),relative viability ([3]; first compound 0.4 µM),relative viability ([3]; first compound 1.265 µM),relative viability ([3]; first compound 4 µM),relative viability ([4]; first compound 0.04 µM),relative viability ([4]; first compound 0.1265 µM),relative viability ([4]; first compound 0.4 µM),relative viability ([4]; first compound 1.265 µM),relative viability ([4]; first compound 4 µM)
NCI-H1437,0.87,0.791,0.764,0.842,1.03,1.09,0.987,0.951,1.04,1.01,0.67,0.602,0.621,0.562,0.639,0.662,0.614,0.615,0.599,0.627
NCI-H1651,0.819,0.919,0.825,0.668,0.855,0.888,1.11,0.991,0.95,1.04,0.482,0.538,0.669,0.542,0.652,0.189,0.18,0.179,0.166,0.185
NCI-H1666,0.678,0.339,0.554,0.541,0.69,0.865,0.903,0.729,0.885,0.877,0.738,0.624,0.728,0.87,0.727,0.737,0.716,0.719,0.696,0.726
NCI-H1734,0.913,0.989,1.07,0.826,1.21,0.932,0.847,0.928,0.776,1,0.531,0.512,0.551,0.497,0.536,0.683,0.623,0.59,0.676,0.764
NCI-H1755,1.14,0.778,1.01,1.05,0.941,0.997,1.06,0.967,0.972,1.03,0.71,0.66,0.753,0.707,0.724,0.918,0.791,0.867,0.836,0.955
NCI-H1792,0.792,0.628,0.863,0.875,0.735,0.61,0.701,0.535,0.674,0.574,–,0.503,0.48,0.501,0.715,–,0.713,0.321,0.435,0.557
NCI-H1793,0.838,0.693,0.654,–,0.742,0.903,0.935,0.747,–,0.968,0.51,0.477,0.478,0.478,0.506,0.953,1.07,0.762,0.718,1.13
NCI-H1915,1.01,0.731,0.924,0.969,0.983,1.09,1.01,1.07,1.04,1.16,0.259,0.248,0.259,0.26,0.28,0.246,0.251,0.263,0.289,0.249
NCI-H1944,0.969,0.8,0.78,0.705,0.908,1.38,1.45,1.14,1.02,1.12,0.443,0.396,0.422,0.443,0.45,0.391,0.394,0.395,0.407,0.376
NCI-H1975,1.06,1.26,0.801,0.905,0.835,1.1,1.16,1,0.955,0.928,0.638,0.432,0.403,0.351,0.42,0.841,0.752,0.768,0.773,0.773
NCI-H1993,0.8,0.675,0.815,0.755,0.887,0.774,0.751,0.701,0.648,0.818,–,0.629,0.666,0.518,0.651,–,0.933,0.847,1.1,1.09
NCI-H2009,0.882,0.239,0.94,0.899,1.15,1.2,1.18,1.18,1.19,1.16,0.4,0.366,0.369,0.333,0.417,0.637,0.698,0.676,0.694,0.669
NCI-H2023,0.852,0.0771,0.716,0.654,0.878,0.656,0.641,0.638,0.588,0.765,0.212,0.229,0.229,0.234,0.266,0.511,0.445,0.47,0.445,0.527
NCI-H2085,0.846,0.791,0.839,0.725,0.774,1.01,0.941,0.898,0.872,0.926,0.55,0.515,0.537,0.526,0.541,0.737,0.729,0.745,0.8,0.746
NCI-H2087,1.08,0.825,1.01,0.984,1.07,0.995,1.03,0.921,0.843,0.959,0.22,0.35,0.308,0.328,0.276,0.609,0.62,0.575,0.567,0.708
NCI-H2126,0.749,0.595,0.715,0.55,0.741,0.769,0.708,0.683,0.592,0.722,0.589,0.573,0.58,0.561,0.602,0.944,0.92,0.912,0.802,0.957
NCI-H2347,1.07,0.512,0.916,0.909,0.964,0.979,0.86,0.919,1,0.903,0.671,0.703,0.617,0.659,0.568,0.571,0.675,0.59,0.577,0.619
NCI-H2405,1.02,1.13,1.11,1.13,1.09,1,1.25,0.838,1.06,0.836,0.68,0.758,0.71,0.661,0.793,0.888,0.897,0.766,0.888,0.876
NCI-H3122,1.05,0.985,1.01,0.98,1.05,1.01,1.07,0.986,1.02,1.03,0.558,–,0.421,0.417,0.477,0.702,–,0.577,0.601,0.651
PC-3 [JPC-3],0.479,0.554,0.472,0.391,0.45,0.991,0.942,0.907,0.93,1.04,0.804,–,0.777,0.737,0.753,1.23,–,1.09,1.21,0.834
PC-14,0.308,0.461,0.297,0.301,0.404,0.935,0.986,0.905,0.897,0.965,0.209,0.245,0.241,0.309,0.264,0.348,0.23,0.261,0.258,0.377
RERF-LC-KJ,0.94,0.751,0.783,0.836,0.954,0.909,0.862,0.869,0.871,0.907,0.657,0.629,0.715,0.666,0.684,0.841,0.866,0.915,0.998,0.979
SK-LU-1,1,0.743,0.851,0.836,1.07,1.18,1.04,0.979,1.06,1.07,0.657,0.638,0.636,0.613,0.73,0.617,0.488,0.426,0.462,0.497
SK-MES-1,0.471,0.502,0.441,0.514,0.473,1.04,1.04,1.06,0.959,1.13,0.427,0.394,0.436,0.384,0.387,0.728,0.73,0.642,0.685,0.899
SW 1573,1.17,1.11,0.959,1.07,1.3,0.71,0.698,0.743,0.754,0.861,0.606,0.685,0.542,0.408,0.553,0.522,0.485,0.504,0.42,0.488

# Source: the supplement of paper PMC10307832
